Test results published in patent US20200368247A1, “CENICRIVIROC FOR THE TREATMENT OF FIBROSIS” (Tobira Therapeutics, Inc., priority 2014, published 2020).

Legend:
[1] = Study 202 treatment-emergent laboratory abnormalities (DAIDS grade); format: in vivo, human
From the text: The 12th subject (Subject 42001) had 2 consecutive CPK elevations (Grade 3 followed by Grade 4) that returned to normal values while continuing treatment at a subsequent visit. None of the CPK elevations were associated with clinical symptoms; no subjects discontinued due to CPK elevations and there were no differences in AEs related to musculoskeletal disorders between the CVC and EFV arms.
The number of subjects with graded treatment-emergent laboratory abnormalities in selected liver parameters of interest is shown in Table 34. No Grade 4 ALT or AST elevations were observed. Except for one Grade 3 AST elevation, all ALT and AST elevations were Grade 1 or Grade 2. […] All abnormalities in bilirubin were Grade 1 or Grade 2. […]

[2] = Study 202 biomarkers of inflammation; format: in vivo, human
Experimental: As an exploratory analysis, levels of inflammation biomarkers MCP-1, sCD14, high sensitivity C-reactive protein [hs-CRP], interleukin-6 [IL-6], D-dimer, and fibrinogen) were measured. Baseline values and changes from baseline at Week 24 and Week 48 of MCP-1, sCD14, hs-CRP, IL-6, D-dimer, and fibrinogen are summarized in Table 25.
The sCD14 samples were originally analyzed in 2 separate batches: Batch 1 included samples leading up to the Week 24 primary analysis and Batch 2 included Week 32 and Week 48 (end of study) samples. A repeat analysis of archived samples all analyzed in one batch was conducted for consistency in analysis across time points. To control for the effects of covariates, a linear mixed-model repeated-measures analysis was conducted on the changes from baseline in sCD14 (analysis dated September 2013).

[3] = CVC 100 mg (N = 58), through Week 48
[4] = CVC 200 mg (N = 57), through Week 48

CCCCOCCOc1ccc(-c2ccc3c(c2)/C=C(/C(=O)Nc2ccc([S@@+]([O-])Cc4cncn4CCC)cc2)CCCN3CC(C)C)cc1 [CVC, (S)-8-[4-(2-Butoxyethoxy)phenyl]-1-isobutyl-N-(4-{[(1-propyl-1H-imidazol-5-yl)methyl]sulfinyl}phenyl)-1,2,3,4-tetrahydro-1-benzazocine-5-carboxamide]
ALT abnormality, worst Grade 4 ([1]; CVC 100 mg (N = 58)): 0 n (%) | AST abnormality, worst Grade 1 ([1]; CVC 100 mg (N = 58)): 8 (14%) n (%) | AST abnormality, worst Grade 2 ([1]; CVC 100 mg (N = 58)): 2 (3%) n (%) | AST abnormality, worst Grade 3 ([1]; CVC 100 mg (N = 58)): 1 (2%) n (%) | AST abnormality, worst Grade 4 ([1]; CVC 100 mg (N = 58)): 0 n (%) | Alanine aminotransferase (ALT) abnormality, any worst grade ([1]; CVC 100 mg (N = 58)): 7 (12%) n (%) | Aspartate aminotransferase (AST) abnormality, any worst grade ([1]; CVC 100 mg (N = 58)): 11 (19%) n (%) | Bilirubin abnormality, any worst grade ([1]; CVC 100 mg (N = 58)): 4 (7%) n (%) | Bilirubin abnormality, worst Grade 1 ([1]; CVC 100 mg (N = 58)): 1 (2%) n (%) | Bilirubin abnormality, worst Grade 2 ([1]; CVC 100 mg (N = 58)): 3 (5%) n (%) | Bilirubin abnormality, worst Grade 3 ([1]; CVC 100 mg (N = 58)): 0 n (%) | Bilirubin abnormality, worst Grade 4 ([1]; CVC 100 mg (N = 58)): 0 n (%) | AST increased, Grade 3 [1, 3]: 1 (2%) n (%) | Any Grade 3 laboratory abnormality [1, 3]: 4 (7%) n (%) | CPK increased, Grade 3 [1, 3]: 2 (3%) n (%) | Any graded (Grade 1-4) laboratory abnormality, % ([1]; CVC 200 mg): 96% | Worst Grade 1 laboratory abnormality, % ([1]; CVC 200 mg): 28% | Worst Grade 2 laboratory abnormality, % ([1]; CVC 200 mg): 47% | Worst Grade 3 laboratory abnormality, % ([1]; CVC 200 mg): 16% | Worst Grade 4 laboratory abnormality, % ([1]; CVC 200 mg): 5% | ALT abnormality, worst Grade 1 ([1]; CVC 200 mg (N = 57)): 6 (11%) n (%) | ALT abnormality, worst Grade 2 ([1]; CVC 200 mg (N = 57)): 2 (4%) n (%) | ALT abnormality, worst Grade 3 ([1]; CVC 200 mg (N = 57)): 0 n (%) | ALT abnormality, worst Grade 4 ([1]; CVC 200 mg (N = 57)): 0 n (%) | AST abnormality, worst Grade 1 ([1]; CVC 200 mg (N = 57)): 6 (11%) n (%) | AST abnormality, worst Grade 2 ([1]; CVC 200 mg (N = 57)): 4 (7%) n (%) | AST abnormality, worst Grade 3 ([1]; CVC 200 mg (N = 57)): 0 n (%) | AST abnormality, worst Grade 4 ([1]; CVC 200 mg (N = 57)): 0 n (%) | Alanine aminotransferase (ALT) abnormality, any worst grade ([1]; CVC 200 mg (N = 57)): 8 (14%) n (%) | Aspartate aminotransferase (AST) abnormality, any worst grade ([1]; CVC 200 mg (N = 57)): 10 (18%) n (%) | Bilirubin abnormality, any worst grade ([1]; CVC 200 mg (N = 57)): 3 (5%) n (%) | Bilirubin abnormality, worst Grade 1 ([1]; CVC 200 mg (N = 57)): 2 (4%) n (%) | Bilirubin abnormality, worst Grade 2 ([1]; CVC 200 mg (N = 57)): 1 (2%) n (%) | Bilirubin abnormality, worst Grade 3 ([1]; CVC 200 mg (N = 57)): 0 n (%) | Bilirubin abnormality, worst Grade 4 ([1]; CVC 200 mg (N = 57)): 0 n (%) | AST increased, Grade 3 [1, 4]: 0 n (%) | AST increased, Grade 4 [1, 4]: 0 n (%) | Any Grade 3 laboratory abnormality [1, 4]: 9 (16%) n (%) | Any Grade 3 or Grade 4 laboratory abnormality [1, 4]: 12 (21%) n (%) | Any Grade 4 laboratory abnormality [1, 4]: 3 (5%) n (%) | Aspartate aminotransferase (AST) increased (Grade 3 or 4) [1, 4]: 0 n (%) | CPK increased, Grade 3 [1, 4]: 6 (11%) n (%) | CPK increased, Grade 4 [1, 4]: 3 (5%) n (%) | Creatine phosphokinase (CPK) increased (Grade 3 or 4) [1, 4]: 9 (16%) n (%) | Fibrinogen decreased (Grade 3 or 4) [1, 4]: 2 (4%) n (%) | Fibrinogen decreased, Grade 3 [1, 4]: 2 (4%) n (%) | Fibrinogen decreased, Grade 4 [1, 4]: 0 n (%) | Hemoglobin decreased (Grade 3 or 4) [1, 4]: 0 n (%) | Hemoglobin decreased, Grade 3 [1, 4]: 0 n (%) | Hemoglobin decreased, Grade 4 [1, 4]: 0 n (%) | Neutrophils decreased (Grade 3 or 4) [1, 4]: 0 n (%) | Neutrophils decreased, Grade 3 [1, 4]: 0 n (%) | Neutrophils decreased, Grade 4 [1, 4]: 0 n (%) | Phosphate decreased (Grade 3 or 4) [1, 4]: 2 (4%) n (%) | Phosphate decreased, Grade 3 [1, 4]: 2 (4%) n (%) | Phosphate decreased, Grade 4 [1, 4]: 0 n (%) | sCD14 Baseline value, Mean ([2]; CVC 100 mg): 1.8e+06 pg/mL | sCD14 change from baseline at Week 12, Mean ([2]; CVC 100 mg): -140000 pg/mL | sCD14 change from baseline at Week 12, Median ([2]; CVC 100 mg): -160000 pg/mL | sCD14 change from baseline at Week 24, Mean ([2]; CVC 100 mg): -190000 pg/mL | sCD14 change from baseline at Week 24, Median ([2]; CVC 100 mg): -180000 pg/mL | sCD14 change from baseline at Week 32, Mean ([2]; CVC 100 mg): 110000 pg/mL | sCD14 change from baseline at Week 32, Median ([2]; CVC 100 mg): 120000 pg/mL | sCD14 change from baseline at Week 48, Mean ([2]; CVC 100 mg): 100000 pg/mL | sCD14 change from baseline at Week 48, Median ([2]; CVC 100 mg): 100000 pg/mL | sCD14 change from baseline at Week 12, Mean ([2]; CVC 200 mg): -230000 pg/mL | sCD14 change from baseline at Week 12, Median ([2]; CVC 200 mg): -210000 pg/mL | sCD14 change from baseline at Week 24, Mean ([2]; CVC 200 mg): -230000 pg/mL | sCD14 change from baseline at Week 24, Median ([2]; CVC 200 mg): -190000 pg/mL | sCD14 change from baseline at Week 32, Mean ([2]; CVC 200 mg): -20000 pg/mL | sCD14 change from baseline at Week 32, Median ([2]; CVC 200 mg): -20000 pg/mL | sCD14 change from baseline at Week 48, Mean ([2]; CVC 200 mg): -40000 pg/mL | sCD14 change from baseline at Week 48, Median ([2]; CVC 200 mg): -40000 pg/mL | plasma MCP-1 over time ([2]; Study 202, up to Week 48): increases over time
